Source: patent US10703748B2, “Diazanaphthalen-3-yl carboxamides and preparation and use thereof” (Samumed, LLC, priority 2017, dated 2020)

What was measured:
[1] = biological target: GSK3β kinase (Homo sapiens, UniProt P49841); assay: GSK3β kinase activity (Ser/Thr 09 peptide Z-lyte FRET assay); assay type: biochemical; settings: recombinant kinase, 46 μM ATP, one hour at room temperature; read-out: EC50
[2] = test system: SW480 colon carcinoma cells; assay: Cell viability assay (CellTiter-Glo); settings: Homo sapiens; for EC50: SW480, 96 h; for inhibition at 10 µM: SW480, read-out: percent inhibition at 10 μM
[3] = test system: secreted cytokines TNFα, IL-6 and KC-GRO; assay: Secreted cytokines in Lipopolysaccharide-stimulated BV-2 cells (Table 9 does not say which cytokine); assay type: cell-based, mouse; settings: Mus musculus, BV-2, 5 h; read-out: EC50
[4] = biological target: DYRK1A kinase (Homo sapiens, UniProt Q13627); assay: DYRK1A kinase activity (Ser/Thr 18 peptide Z-lyte FRET assay); assay type: biochemical; settings: recombinant DYRK1A, 30 μM ATP, one hour at room temperature;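 note: kinase activity read as coumarin/fluorescein emission ratio after development step, with unphosphorylated and phosphorylated peptide forms setting 0% and 100% controls, values from dose-response curves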
[5] = test system: α-smooth muscle actin (aSMA) positive LL29 cells; assay: Inhibition of the fibrotic process: αSMA staining in TGF-β1 treated LL29 fibroblasts from IPF patients; settings: Homo sapiens, Fibroblast; for EC50: 96 h; for inhibition at 10 µM: read-out: percentage in parentheses after EC50 >10
[6] = test system: Tau phosphorylation at Ser396 (pSer396); assay: Tau phosphorylation at Ser396 (pSer396) in SH-SY5Y cells, ELISA / western blot; assay type: cell-based, human; settings: Homo sapiens; SH-SY5Y cells, overnight (16-18 h); read-out: pSer396 Tau EC50;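 note: decrease in pSer396 Tau measured in lysates of treated cells by colorimetric ELISA or chemiluminescent western blot, same pSer396 antibody for both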
Protocol: Two days before treatment, cells were seeded onto 96 well plates at 5×10^4 cells/well.
The above synthesized compounds were screened using the cell assay procedure to assess decrease Tau phosphorylation at Ser396 (pSer396) described below.
Cells were lysed with RIPA buffer complemented with phosphatase and protease inhibitors then lysates were spun down at 12,000 g for 10 min to remove any cellular debris.

[7] = test system: IL-6; assay: IL-6 inhibition in LPS-stimulated human peripheral blood mononuclear cells (HTRF); settings: Homo sapiens, PBMC; for EC50: 22 h; for inhibition at 10 µM: read-out: percentage in parentheses after EC50 >10
[8] = test system: Wnt-responsive Sp5-Luc reporter in SW480 colon carcinoma cells; assay: Screening assay for Wnt activity (Sp5-Luc reporter gene assay); settings: Homo sapiens; for EC50: SW480; for inhibition at 10 µM: SW480, read-out: percent inhibition at 10 μM

Chain of GSK3β kinase (P49841 whole entry): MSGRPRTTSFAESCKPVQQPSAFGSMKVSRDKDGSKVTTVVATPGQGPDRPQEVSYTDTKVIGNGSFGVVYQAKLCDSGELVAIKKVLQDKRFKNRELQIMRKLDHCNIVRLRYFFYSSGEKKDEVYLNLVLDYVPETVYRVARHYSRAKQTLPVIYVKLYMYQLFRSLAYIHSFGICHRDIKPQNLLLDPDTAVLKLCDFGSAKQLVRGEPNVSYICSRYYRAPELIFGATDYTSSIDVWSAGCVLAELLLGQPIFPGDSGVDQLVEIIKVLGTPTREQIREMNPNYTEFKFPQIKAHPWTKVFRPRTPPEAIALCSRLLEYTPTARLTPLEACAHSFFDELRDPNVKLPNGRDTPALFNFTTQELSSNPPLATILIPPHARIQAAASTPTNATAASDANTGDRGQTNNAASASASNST

| EC50 [1] [nM] | EC50 [2] [nM] | EC50 [3] [nM] | EC50 [4] [nM] | EC50 [6] [nM] | EC50 [7] [nM] | EC50 [8] [nM] | SMILES | EC50 [5] [nM] | inhibition at 10 µM [7] [%] | inhibition at 10 µM [2] [%] | inhibition at 10 µM [5] [%] | inhibition at 10 µM [8] [%] |
| --- | --- | --- | --- | --- | --- | --- | --- | --- | --- | --- | --- | --- |
| 72 | 8440 | 859 | 4 | 989 | > 10000 | 972 | O=C(Nc1cc2cc(-c3cnco3)ncc2cn1)C1CCN(C(=O)CN2CCCC2)CC1 [Compound 4159, N-(6-(Oxazol-5-yl)-2,7-naphthyridin-3-yl)-1-(2-(pyrrolidin-1-yl)acetyl) piperidine-4-carboxamide] | 347 | 10.1 | – | – | – |
| 187 | > 10000 | 1700 | 5 | 491 | > 10000 | > 10000 | CN(C)[C@H]1CC[C@H](C(=O)Nc2cc3cc(-c4cncs4)ncc3cn2)CC1 [Compound 4239, trans-4-(dimethylamino)-N-(6-(thiazol-5-yl)-2,7-naphthyridin-3-yl) cyclohexane-1-carboxamide] | > 10000 | 10.5 | 27.6 | 50 | 41.9 |
| 199 | > 10000 | 516 | 39 | 553 | > 10000 | 1520 | CN1CCC(C(=O)Nc2cc3cc(-c4cnsc4)ncc3cn2)CC1 [Compound 4319, N-(6-(Isothiazol-4-yl)-2,7-naphthyridin-3-yl)-1-methylpiperidine-4-carboxamide] | 1630 | 11.4 | 43 | – | – |
| 77 | > 10000 | 524 | 4 | 10000 | > 10000 | 3640 | O=C(Nc1cc2cc(-c3cncc(NC4CCNCC4)n3)ncc2cn1)C1CCOCC1 [Compound 4504, N-(6-(6-(Piperidin-4-ylamino)pyrazin-2-yl)-2,7-naphthyridin-3-yl) tetrahydro-2H-pyran-4-carboxamide] | 384 | 7.3 | 47.9 | – | – |
| 188 | 4050 | 162 | 9 | 925 | 2860 | 346 | Cn1cc(-c2ccc3cnc(NC(=O)[C@H]4CC[C@H](NCCF)CC4)cc3n2)cn1 [Compound 4535, trans-4-((2-Fluoroethyl)amino)-N-(2-(1-methyl-1H-pyrazol-4-yl)-1,6-naphthyridin-7-yl) cyclohexane-1-carboxamide] | > 10000 | – | – | 25 | – |
| 319 | > 10000 | 89 | 14 | > 10000 | 3020 | 832 | COCCN[C@H]1CC[C@H](C(=O)Nc2cc3nc(-c4cnn(C)c4)ccc3cn2)CC1 [Compound 4536, trans-4-((2-Methoxyethyl)amino)-N-(2-(1-methyl-1H-pyrazol-4-yl)-1,6-naphthyridin-7-yl) cyclohexane-1-carboxamide] | 1140 | – | 45.9 | – | – |
| 18 | 5610 | 353 | 33 | 76 | 7770 | 59 | Cc1ncc(-c2ccc3cnc(NC(=O)C(C)N4CCCC4)cc3n2)n1C (stereo not shown) [Compound 4544, N-(2-(1,2-Dimethyl-1H-imidazol-5-yl)-1,6-naphthyridin-7-yl)-2-(pyrrolidin-1-yl)propanamide] | 1090 | – | – | – | – |
| 100 | 5800 | 165 | 4 | 7000 | 9230 | 2800 | Cc1ncc(-c2ccc3cnc(NC(=O)[C@H]4CC[C@H](CO)CC4)cc3n2)s1 [Compound 4558, trans-4-(Hydroxymethyl)-N-(2-(2-methylthiazol-5-yl)-1,6-naphthyridin-7-yl) cyclohexane-1-carboxamide] | 277 | – | – | – | – |
| 110 | > 10000 | 411 | 14 | 2400 | 8500 | > 10000 | Cc1ncc(-c2ccc3cnc(NC(=O)[C@H]4CC[C@H](N(C)C)CC4)cc3n2)s1 [Compound 4559, trans-4-(Dimethylamino)-N-(2-(2-methylthiazol-5-yl)-1,6-naphthyridin-7-yl) cyclohexane-1-carboxamide] | 589 | – | 44.8 | – | 40.8 |
| 127 | > 10000 | 117 | 14 | 992 | > 10000 | > 10000 | Cc1ncc(-c2ccc3cnc(NC(=O)C4CCN(C5COC5)CC4)cc3n2)s1 [Compound 4560, N-(2-(2-Methylthiazol-5-yl)-1,6-naphthyridin-7-yl)-1-(oxetan-3-yl) piperidine-4-carboxamide] | 779 | 2.7 | 37.5 | – | 49.7 |
| 336 | > 10000 | 380 | 2 | 8800 | > 10000 | > 10000 | O=C(Nc1ncc2ccc(-c3cncs3)cc2n1)[C@H]1CC[C@H](CO)CC1 [Compound 4586, trans-4-(hydroxymethyl)-N-(7-(thiazol-5-yl)quinazolin-2-yl)cyclohexane-1-carboxamide] | 4440 | 4.8 | 25.1 | – | 29.6 |

Second part, the molecule before the results:

| SMILES | EC50 [1] [nM] | EC50 [2] [nM] | EC50 [3] [nM] | EC50 [4] [nM] | EC50 [6] [nM] | EC50 [7] [nM] | EC50 [8] [nM] | EC50 [5] [nM] | inhibition at 10 µM [7] [%] | inhibition at 10 µM [2] [%] | inhibition at 10 µM [5] [%] | inhibition at 10 µM [8] [%] |
| --- | --- | --- | --- | --- | --- | --- | --- | --- | --- | --- | --- | --- |
| CN1CCN(Cc2cccc(C(=O)Nc3cc4cc(-c5cnn(C)c5)ncc4cn3)c2)CC1 [Compound 3799, N-(6-(1-Methyl-1H-pyrazol-4-yl)-2,7-naphthyridin-3-yl)-3-((4-methylpiperazin-1-yl)methyl)benzamide] | 243 | 3660 | 79 | 12 | 3640 | > 10000 | 2120 | 2580 | 5.3 | – | – | – |
| Cn1cc(-c2cc3cc(NC(=O)CCc4ccccc4)ncc3cn2)cn1 [Compound 3821, N-(6-(1-Methyl-1H-pyrazol-4-yl)-2,7-naphthyridin-3-yl)-3-phenylpropanamide] | 1 | 231 | 244 | 7 | 29 | 8410 | 176 | 313 | – | – | – | – |
| Cn1ncc(-c2cc3cc(NC(=O)C4CC5(C4)CN(CCF)C5)ncc3cn2)c1CN1CCCCC1 [Compound 3907, 2-(2-Fluoroethyl)-N-(6-(1-methyl-5-(piperidin-1-ylmethyl)-1H-pyrazol-4-yl)-2,7-naphthyridin-3-yl)-2-azaspiro[3.3]heptane-6-carboxamide] | 39 | 1300 | 4700 | 48 | 367 | 8810 | 361 | 1820 | – | – | – | – |
| O=C(Nc1cc2cc(-c3cnn4c3CN(CCF)CC4)ncc2cn1)C1CCC(F)(F)CC1 [Compound 3944, 4,4-Difluoro-N-(6-(5-(2-fluoroethyl)-4,5,6,7-tetrahydropyrazolo[1,5-a]pyrazin-3-yl)-2,7-naphthyridin-3-yl)cyclohexane-1-carboxamide] | 18 | 7300 | 471 | 6 | 428 | > 10000 | 962 | 416 | 22.2 | – | – | – |
| Cn1cncc1-c1cc2cc(NC(=O)C3CCC(F)(F)CC3)ncc2cn1 [Compound 4027, 4,4-Difluoro-N-(6-(1-methyl-1H-imidazol-5-yl)-2,7-naphthyridin-3-yl) cyclohexane-1-carboxamide] | 72 | > 10000 | ≥ 10000 | 21 | 219 | > 10000 | > 10000 | > 10000 | 4 | 26.3 | 33.9 | 17.5 |
| CC(C(=O)Nc1cc2cc(-c3cncn3C)ncc2cn1)N1CCCC1 (stereo not shown) [Compound 4041, N-(6-(1-Methyl-1H-imidazol-5-yl)-2,7-naphthyridin-3-yl)-2-(pyrrolidin-1-yl) propanamide] | 19 | 4540 | 3900 | 630 | 102 | > 10000 | 291 | 3490 | 0 | – | – | – |
| Cn1cncc1-c1cc2cc(NC(=O)c3ccc4c(c3)CNC4)ncc2cn1 [Compound 4104, N-(6-(1-Methyl-1H-imidazol-5-yl)-2,7-naphthyridin-3-yl)isoindoline-5-carboxamide] | 145 | 7750 | 1200 | 3 | 10000 | > 10000 | > 10000 | 3080 | 5.7 | – | – | 41.3 |
